Biological target: T1, α-amylase (Sus scrofa, UniProt P00690)
T1 construct: gene AMY2; from porcine pancreas, type VI-B
T1 sequence (P00690 16-511): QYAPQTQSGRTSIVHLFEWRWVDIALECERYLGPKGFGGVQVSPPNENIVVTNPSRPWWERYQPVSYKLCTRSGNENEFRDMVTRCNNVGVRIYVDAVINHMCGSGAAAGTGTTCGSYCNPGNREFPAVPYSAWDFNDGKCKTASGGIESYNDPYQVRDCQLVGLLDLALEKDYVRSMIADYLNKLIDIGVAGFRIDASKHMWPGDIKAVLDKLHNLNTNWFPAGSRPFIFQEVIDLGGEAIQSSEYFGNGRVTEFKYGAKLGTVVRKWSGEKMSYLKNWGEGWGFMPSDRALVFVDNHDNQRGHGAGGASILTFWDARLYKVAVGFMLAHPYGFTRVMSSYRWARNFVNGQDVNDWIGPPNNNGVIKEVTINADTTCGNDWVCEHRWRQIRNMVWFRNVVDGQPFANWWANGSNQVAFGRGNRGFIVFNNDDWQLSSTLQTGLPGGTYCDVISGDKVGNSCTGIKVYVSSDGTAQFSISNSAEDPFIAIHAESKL
Experiment: electrochemical glucose sensor (PBA-GO-CuO electrode) assay of starch hydrolysis; checked by iodine colorimetric assay
Type: biochemical

Question: `O=C(O)c1cc(O)c2c(c1)C(=O)c1cccc(O[C@@H]3O[C@H](CO)[C@@H](O)[C@H](O)[C@H]3O)c1C2=O` [Rhein-8-b-D-glucopyranoside] was tested. Which IC50 did it give?
Answer: 39.1 µM
